# Measured values reported in patent publication US20240327463A1, “ANTIBACTERIAL PRODUCTS” (priority 2017, published 2024).
# Tests used:
# Mycobacterium smegmatis = type: cell-based
# In short: (§1)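 Strains grow in Mueller Hinton broth at 37 °C; test compound is diluted stepwise in Mueller Hinton to well 11, and the whole procedure is carried out in triplicate.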
# MRSA ATCC 33591 [1] = tested on: MRSA ATCC 33591
# In short: (§2)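 Twofold broth microdilution in Mueller Hinton from a 512 μg/ml starting well, peptides dissolved in DMSO. Plates incubated 24 hours at 37° C, in triplicate. MIC read as lowest concentration without visible growth.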
# MRSA DR 42412 (sputum) = assay: microbe, parasite or virus in culture; details: DR 42412 (sputum)
# In short: as §2
# MRSA DM21455 (eye) = assay: microbe, parasite or virus in culture; details: DM21455 (eye)
# In short: as §2
# MRSA ATCC 700699 = assay: microbe, parasite or virus in culture; details: ATCC 700699
# In short: as §2
# [2] = tested on: Staphylococcus aureus ATCC 29213; assay: microbe, parasite or virus in culture
# In short: as §2
# M. smegmatis ATCC 607 = assay: microbe, parasite or virus in culture; details: ATCC 607
# In short: as §2
# VRE ATCC 29212 = assay: microbe, parasite or virus in culture; details: ATCC 29212
# In short: as §2
# VRE ATCC 700802 = assay: microbe, parasite or virus in culture; details: ATCC 700802
# In short: as §2
# [3] = rabbit; 50 μl of 0.3% (w/v) topically 4 times/day; fluorescein staining
# Experimental: The in vivo toxicity of Compound 26 in a rabbit corneal damage model was examined. A 50 μl of 0.3% (w/v) solution was applied topically (4 times/day) to the circularly debrided cornea and reepithelialisation was monitored by fluorescein staining. Vehicle alone served as control.
# S. aureus ATCC 29213 [4] = assay: Mice-eye model of S. aureus keratitis; type: in vivo; details: for mean corneal thickness: baseline 93.8±2.9 μm
# From the text: The in vivo efficacy of Compound 26 in the mice-eye model of S. aureus keratitis was examined. S. aureus is one of the major etiological agents for bacterial keratitis and the toxic secretions produced by this microorganism have been implicated in corneal melt, leading to significant morbidity and vision loss. […] A total of 8 doses were applied and the progression of the infection was monitored by slit lamp examination, anterior segment optical coherent tomography (AS-OCT) and microbiological enumeration of the bacterial bioburden. Mice cornea treated with PBS had severe clinical presentation indicated by chemosis, significant presence of hypopyon like materials and corneal infiltrates (FIG. 4).
# [5] = tested on: human primary dermal fibroblasts (hDFs); assay: in vitro
# Experimental: (§3) It was important to evaluate the cytotoxicity of Compound 26 on mammalian cells prior to in vivo studies. The cytotoxicity of Compound 26 in human lung epithelial cell line A549 and primary dermal fibroblasts (hDFs) was determined. Both of these cell culture models are already established for evaluation of cytotoxicity of antimicrobial peptides.
# (§4) The stock solution of Compound 26 (500 μg/ml) was prepared fresh by directly dissolving Compound 26 in cell culture medium and used. Cells were treated with dimethyl sulfoxide (DMSO, 0.1% v/v) or nocodazole (5 μg/ml dissolved in DMSO) as controls. At the end of the treatment period, metabolic activities of cells were quantified by MTS-based cell viability assay. […] After 24 h treatment with Compound 26, A549 cells (c) and hDFs (d) were fixed, fluorescently stained with rhodamine-phalloidin (red), alexa fluor 488 conjugated anti-α-tubulin (green) and Hoechst 33342 (blue) and imaged using IN Cell Analyzer 2200 automated microscope. Representative images of cells treated with Compound 26 (62.5 μg/ml for 24 h) or nocodazole (10 μg/ml, toxicity control) are shown in FIG. 2 c,d.
# in vitro = details: human
# Experimental: as §3, §4
# [6] = tested on: human lung epithelial cell line A549; assay: in vitro
# Experimental: as §3, §4
# S. aureus ATCC 29213 [7] = tested on: S. aureus ATCC 29213
# VRE 1002 = type: cell-based, Enterococcus faecalis
# In short: as §1
# VRE 1001 = type: cell-based, Enterococcus faecalis
# In short: as §1
# VRE 1004 = type: cell-based, Enterococcus faecalis
# In short: as §1
# VRE 1008 = type: cell-based, Enterococcus faecalis
# In short: as §1
# MRSA ATCC 33591 [8] = tested on: MRSA ATCC 33591; remark: listed apart in the source
# MRSA 1003 = type: cell-based, Staphylococcus aureus
# In short: as §1
# S. aureus/MRSA strains = assay: Minimum bactericidal concentrations against S. aureus/MRSA strains; type: cell-based, Staphylococcus aureus; details: tested S. aureus/MRSA strains
# From the text: (§5) The inclusion of 3 arginines in the above case likely perturbs the amphiphilic character of the teixobactin, resulting in a decrease in activity. […] Importantly, the hydrophobic-hydrophilic balance of these analogues was similar to natural teixobactin (two cationic charges). […] The minimum bactericidal concentrations (MBC) of teixobactin analogues against S. aureus/MRSA strains (Table 11) has been further determined. […] In view of narrow MIC distribution values and bactericidal properties, attention was focused on Compound 26 and further investigated its biological properties.
# S. aureus ATCC 29213 [9] = assay: Time-kill kinetics against S. aureus ATCC 29213; type: cell-based, Staphylococcus aureus; details: 0.5 μg/ml or 1 μg/ml; at 8 h
# [10] = tested on: Bacillus Subtilis ATCC 6633; type: cell-based
# In short: as §1
# [11] = tested on: Staphylococcus saprophyticus ATCC 49453; type: cell-based; details: Staphylococcus saprophyticus ATCC 49453; Table 11
# In short: as §1
# [12] = tested on: Bacillus Cereus ATCC 11788; type: cell-based
# In short: as §1
# [13] = tested on: Staphylococcus saprophyticus ATCC BAA 750; type: cell-based; details: Staphylococcus saprophyticus ATCC BAA 750; Table 11
# In short: as §1
# [14] = tested on: Staphylococcus saprophyticus ATCC 15305; type: cell-based; details: Staphylococcus saprophyticus ATCC 15305; Table 11
# In short: as §1
# [15] = tested on: Staphylococcus saprophyticus ATCC 49907; type: cell-based; details: Staphylococcus saprophyticus ATCC 49907; Table 11
# In short: as §1
# [16] = tested on: panel of antibiotic-resistant and antibiotic susceptible Gram-positive pathogens; details: average over tested strains
# In short: as §2
# Pseudomonas aeruginosa = assay: Activity against Pseudomonas aeruginosa; type: cell-based
# From the text: as §5
smiles,measurement,setting,value
CC[C@@H](C)[C@@H](NC(=O)[C@@H](CCC(N)=O)NC(=O)[C@H](CO)NC(=O)[C@@H](NC(=O)[C@@H](Cc1ccccc1)NC)[C@@H](C)CC)C(=O)N[C@H](C(=O)N[C@@H](CO)C(=O)N[C@H]1C(=O)N[C@@H](C)C(=O)N[C@@H](C)C(=O)N[C@@H]([C@@H](C)CC)C(=O)O[C@H]1C)[C@@H](C)CC [Compound 14],MIC (μg/mL) Mycobacterium smegmatis,Mycobacterium smegmatis,2 µg/mL
same,MIC (MRSA*),MRSA ATCC 33591 [1]; ATCC 33591,1 to 2 µg/mL
same,MBC,MRSA DR 42412 (sputum),4 µg/mL
same,MIC,MRSA DR 42412 (sputum),1 µg/mL
same,MBC,MRSA DM21455 (eye),2 µg/mL
same,MIC,MRSA DM21455 (eye),1 µg/mL
same,MBC,MRSA ATCC 700699,16 µg/mL
same,MIC,MRSA ATCC 700699,4 µg/mL
same,MBC,[2]; ATCC 29213,2 µg/mL
same,MIC,[2]; ATCC 29213,1 µg/mL
same,MIC,M. smegmatis ATCC 607,1 to 2 µg/mL
same,MIC,VRE ATCC 29212,4 µg/mL
same,MIC,VRE ATCC 700802,4 µg/mL
"CC[C@@H](C)[C@@H](NC(=O)[C@@H](CCCNC(=N)N)NC(=O)[C@H](CO)NC(=O)[C@@H](NC(=O)[C@@H](Cc1ccccc1)NC)[C@@H](C)CC)C(=O)N[C@H](C(=O)N[C@@H](CO)C(=O)N[C@H]1C(=O)N[C@@H](C)C(=O)N[C@@H](CC(C)C)C(=O)N[C@@H]([C@@H](C)CC)C(=O)O[C@H]1C)[C@@H](C)CC [Compound 26, D-Arg4-Leu10-teixobactin]",corneal wound closure / reepithelialisation versus PBS,[3],no significant difference in wound closure
same,mean corneal thickness,"S. aureus ATCC 29213 [4]; 24 h post treatment, 0.3% topical",92.3±12.5 μm
same,mean corneal thickness,"S. aureus ATCC 29213 [4]; 48 h post treatment, 0.3% topical",121.7±3.2 μm
same,cornea with detectable bacterial colonies,S. aureus ATCC 29213 [4]; after 8 dosages,Five out of six
same,mean log10 CFU/tissue,"S. aureus ATCC 29213 [4]; corneal tissues harvested after 8 dosages, ± standard error of the mean",3.97±0.19 log10 CFU/tissue
same,clinical appearance of infected cornea (slit lamp),"S. aureus ATCC 29213 [4]; mice, 0.3% topical, 8 doses from 6 h p.i.",remained clear and no signs of corneal defects
same,"cell morphology, high content images",[5],absence of any cytoskeletal and nuclear disruption
same,"viability at 24 h, 250 µg/mL",in vitro; A549 lung epithelial cells,80%
same,"viability at 24 h, 250 µg/mL",in vitro; primary dermal fibroblasts (hDFs),80%
same,"cell morphology, high content images",[6],absence of any cytoskeletal and nuclear disruption
same,calculated frequency of resistance,S. aureus ATCC 29213 [7],< 10^−10
same,"resistant mutants, single step resistance","S. aureus ATCC 29213 [7]; 5×, 10×, 20×MIC",could not be obtained
same,MIC,VRE 1002,1 µg/mL
same,MIC,VRE 1001,0.5 µg/mL
same,MIC,VRE 1004,0.25 µg/mL
same,MIC,VRE 1008,0.5 µg/mL
same,calculated frequency of resistance,MRSA ATCC 33591 [8],< 10^−10
same,"resistant mutants, single step resistance","MRSA ATCC 33591 [8]; 5×, 10×, 20×MIC",could not be obtained
same,MIC,MRSA 1003,0.5 µg/mL
same,MBC relative to MIC,S. aureus/MRSA strains,≤ 4 times the MIC
same,decrease in bacterial viability (time-kill),S. aureus ATCC 29213 [9],≥log10 decrease in bacterial viability
same,MIC,[10],0.125 µg/mL
same,MIC,[11],<0.0625 µg/mL
same,MIC,[12],0.5 µg/mL
same,MIC,[13],<0.0625 µg/mL
same,MIC,[14],<0.0625 µg/mL
same,MIC,[15],<0.0625 µg/mL
same,average MIC,[16],0.27 µg/mL
same,MIC (MRSA),"MRSA ATCC 33591 [1]; Table 10, MRSA ATCC 33591",0.125 µg/mL
same,MIC,MRSA DR 42412 (sputum),0.0313 µg/mL
same,MIC,MRSA DM21455 (eye),0.0313 µg/mL
same,MIC,MRSA ATCC 700699,0.25 µg/mL
same,MIC,"[2]; SA29213, Table 11",<0.0625 µg/mL
same,MIC,VRE ATCC 29212,0.5 µg/mL
same,MIC,VRE ATCC 700802,0.5 µg/mL
same,activity against Pseudomonas aeruginosa (Gram negative bacteria),Pseudomonas aeruginosa,inactive
